The NIST ThermoML archive (doi:10.1016/j.fluid.2016.07.034)

Assay: molar heat capacity at constant pressure
Conditions: Flow calorimetry

CCF [fluoroethane]
Conditions	molar heat capacity at constant pressure [J/K/mol]
303.42 K, 1340 kPa, Liquid	107.27
303.47 K, 1930 kPa, Liquid	106.74
303.48 K, 6470 kPa, Liquid	102.68
303.49 K, 9530 kPa, Liquid	100.86
303.5 K, 2520 kPa, Liquid	106.24
303.5 K, 8030 kPa, Liquid	101.83
303.5 K, 10100 kPa, Liquid	100.8
303.51 K, 7100 kPa, Liquid	102.32
303.51 K, 11050 kPa, Liquid	100.2
303.52 K, 5200 kPa, Liquid	103.84
303.52 K, 8440 kPa, Liquid	101.93
303.52 K, 10520 kPa, Liquid	100.64
303.52 K, 11560 kPa, Liquid	100.42
303.53 K, 3000 kPa, Liquid	106.02
303.53 K, 5540 kPa, Liquid	103.57
303.53 K, 5980 kPa, Liquid	103.24
303.53 K, 7520 kPa, Liquid	102.26
303.53 K, 9130 kPa, Liquid	101.37
303.54 K, 12050 kPa, Liquid	100.01
303.55 K, 3510 kPa, Liquid	105.63
303.55 K, 4550 kPa, Liquid	104.88
303.57 K, 4010 kPa, Liquid	105.42
313.31 K, 2010 kPa, Liquid	110.61
313.33 K, 3080 kPa, Liquid	109.26
313.35 K, 2560 kPa, Liquid	110.04
313.35 K, 3500 kPa, Liquid	108.56
313.36 K, 4000 kPa, Liquid	108.09
313.37 K, 4510 kPa, Liquid	107.49
313.37 K, 7030 kPa, Liquid	104.99
313.38 K, 8490 kPa, Liquid	103.71
313.38 K, 9510 kPa, Liquid	102.92
313.39 K, 5070 kPa, Liquid	107.08
313.39 K, 7490 kPa, Liquid	104.67
313.4 K, 9090 kPa, Liquid	103.61
313.4 K, 10010 kPa, Liquid	102.8
313.41 K, 1510 kPa, Liquid	112.39
313.41 K, 6080 kPa, Liquid	106.37
313.42 K, 5490 kPa, Liquid	106.99
313.42 K, 7980 kPa, Liquid	104.69
313.42 K, 10490 kPa, Liquid	102.75
313.43 K, 6510 kPa, Liquid	106.03
313.43 K, 10980 kPa, Liquid	102.52
313.47 K, 11470 kPa, Liquid	102.55
315.33 K, 1020 kPa, Gas	77.84
315.39 K, 1110 kPa, Gas	80.21
315.56 K, 1220 kPa, Gas	83.09
324.11 K, 2050 kPa, Liquid	115.84
324.13 K, 2570 kPa, Liquid	114.7
324.13 K, 8110 kPa, Liquid	105.47
324.14 K, 5980 kPa, Liquid	108.6
324.15 K, 3000 kPa, Liquid	113.84
324.15 K, 8550 kPa, Liquid	105.2
324.16 K, 4060 kPa, Liquid	111.82
324.16 K, 6470 kPa, Liquid	107.92
324.16 K, 7520 kPa, Liquid	106.39
324.17 K, 5510 kPa, Liquid	109.38
324.17 K, 10040 kPa, Liquid	103.35
324.18 K, 3500 kPa, Liquid	113.06
324.18 K, 4510 kPa, Liquid	111.09
324.19 K, 7020 kPa, Liquid	107.27
324.19 K, 9040 kPa, Liquid	104.9
324.19 K, 10510 kPa, Liquid	103.17
324.19 K, 11010 kPa, Liquid	102.91
324.21 K, 5030 kPa, Liquid	110.51
324.21 K, 9450 kPa, Liquid	104.56
324.21 K, 11610 kPa, Liquid	102.46
324.22 K, 12030 kPa, Liquid	102.24
325.23 K, 1300 kPa, Gas	79.4
325.26 K, 1210 kPa, Gas	77.2
325.57 K, 1110 kPa, Gas	75.5
333.86 K, 2520 kPa, Liquid	124.88
333.92 K, 3010 kPa, Liquid	123.2
333.97 K, 5000 kPa, Liquid	117.16
333.97 K, 5500 kPa, Liquid	115.91
333.98 K, 5990 kPa, Liquid	114.8
333.99 K, 3510 kPa, Liquid	121.92
333.99 K, 4620 kPa, Liquid	118.27
333.99 K, 9500 kPa, Liquid	108.39
334 K, 4070 kPa, Liquid	120.01
334 K, 6530 kPa, Liquid	113.92
334.01 K, 10060 kPa, Liquid	108
334.02 K, 7050 kPa, Liquid	112.82
334.03 K, 8960 kPa, Liquid	109.42
334.03 K, 10520 kPa, Liquid	107.4
334.03 K, 11040 kPa, Liquid	107.08
334.05 K, 7490 kPa, Liquid	112.09
334.05 K, 8350 kPa, Liquid	110.82
334.05 K, 11630 kPa, Liquid	106.69
334.07 K, 12280 kPa, Liquid	106.31
334.76 K, 1410 kPa, Gas	77.78
335.09 K, 1600 kPa, Gas	82.79
335.23 K, 1510 kPa, Gas	80.11
335.46 K, 1300 kPa, Gas	75.24
335.63 K, 1210 kPa, Gas	74.2
343.4 K, 2840 kPa, Liquid	135.92
343.44 K, 3020 kPa, Liquid	134.94
343.77 K, 3540 kPa, Liquid	133.68
343.84 K, 4040 kPa, Liquid	131.08
343.88 K, 4520 kPa, Liquid	129.17
343.89 K, 5970 kPa, Liquid	123.05
343.9 K, 6530 kPa, Liquid	121.47
343.9 K, 7040 kPa, Liquid	120.17
343.9 K, 7540 kPa, Liquid	118.86
343.91 K, 5560 kPa, Liquid	124.9
343.91 K, 8070 kPa, Liquid	117.76
343.91 K, 8530 kPa, Liquid	116.74
343.92 K, 9010 kPa, Liquid	115.78
343.92 K, 9480 kPa, Liquid	114.8
343.92 K, 10010 kPa, Liquid	113.86
343.92 K, 10500 kPa, Liquid	112.99
343.93 K, 5100 kPa, Liquid	126.98
343.93 K, 11010 kPa, Liquid	112.27
343.96 K, 11570 kPa, Liquid	111.8
343.99 K, 12130 kPa, Liquid	111.22
344.36 K, 2000 kPa, Gas	89.95
345.01 K, 1810 kPa, Gas	82.66
345.19 K, 1220 kPa, Gas	72.72
345.35 K, 1600 kPa, Gas	77.74
345.47 K, 1420 kPa, Gas	74.9
353.68 K, 3480 kPa, Liquid	157.19
353.77 K, 8480 kPa, Liquid	121.76
353.78 K, 7950 kPa, Liquid	123.23
353.79 K, 6470 kPa, Liquid	128.91
353.79 K, 9090 kPa, Liquid	120.56
353.79 K, 10010 kPa, Liquid	118.76
353.8 K, 7530 kPa, Liquid	124.7
353.8 K, 9570 kPa, Liquid	119.62
353.8 K, 10480 kPa, Liquid	117.97
353.81 K, 6000 kPa, Liquid	131.53
353.81 K, 7130 kPa, Liquid	126.37
353.81 K, 11040 kPa, Liquid	117.35
353.82 K, 4030 kPa, Liquid	149.07
353.82 K, 5500 kPa, Liquid	134.57
353.84 K, 11540 kPa, Liquid	116.89
353.85 K, 5030 kPa, Liquid	138.32
353.86 K, 4500 kPa, Liquid	143.57
353.87 K, 11950 kPa, Liquid	116.16
355.25 K, 1910 kPa, Gas	81.51
355.27 K, 1520 kPa, Gas	75.85
355.27 K, 1700 kPa, Gas	78.58
355.27 K, 2110 kPa, Gas	85.11
355.28 K, 1310 kPa, Gas	73.7
355.3 K, 1130 kPa, Gas	71.61
355.31 K, 2610 kPa, Gas	99.72
355.33 K, 2820 kPa, Gas	109.04
355.48 K, 2360 kPa, Gas	90.82
355.52 K, 2590 kPa, Gas	97.73
363.33 K, 4330 kPa, Liquid	193.61
363.59 K, 7000 kPa, Liquid	139.97
363.59 K, 7500 kPa, Liquid	136.22
363.59 K, 8480 kPa, Liquid	130.33
363.6 K, 8030 kPa, Liquid	132.67
363.61 K, 9520 kPa, Liquid	125.95
363.61 K, 10000 kPa, Liquid	123.85
363.62 K, 6030 kPa, Liquid	150.44
363.62 K, 6520 kPa, Liquid	144.76
363.63 K, 8990 kPa, Liquid	128.17
363.66 K, 5490 kPa, Liquid	159.6
363.66 K, 10580 kPa, Liquid	122.57
363.68 K, 11000 kPa, Liquid	121.51
363.7 K, 4990 kPa, Liquid	171.83
363.71 K, 11510 kPa, Liquid	120.57
363.75 K, 12010 kPa, Liquid	119.55
365.28 K, 2190 kPa, Gas	82.06
365.28 K, 2400 kPa, Gas	85.63
365.29 K, 2010 kPa, Gas	79.35
365.3 K, 1810 kPa, Gas	76.69
365.33 K, 2600 kPa, Gas	89.76
365.34 K, 1600 kPa, Gas	74.44
365.39 K, 1200 kPa, Gas	71.16
365.39 K, 1410 kPa, Gas	72.82
365.42 K, 2800 kPa, Gas	94.54
365.46 K, 2990 kPa, Gas	99.69
365.54 K, 3400 kPa, Gas	118.14
365.75 K, 3200 kPa, Gas	107.31
373.37 K, 5540 kPa, Liquid	218.6
373.47 K, 9520 kPa, Liquid	134.79
373.48 K, 9010 kPa, Liquid	138.16
373.53 K, 8500 kPa, Liquid	142.08
373.53 K, 9990 kPa, Liquid	132.61
373.53 K, 11480 kPa, Liquid	126.08
373.54 K, 8000 kPa, Liquid	146.44
373.55 K, 6030 kPa, Liquid	187.59
373.56 K, 6990 kPa, Liquid	159.83
373.56 K, 10990 kPa, Liquid	128.66
373.57 K, 7500 kPa, Liquid	151.89
373.58 K, 6510 kPa, Liquid	170.77
373.58 K, 10550 kPa, Liquid	130.44
383.1 K, 6560 kPa, Liquid	239.16
383.57 K, 7020 kPa, Liquid	204.1
383.71 K, 10040 kPa, Liquid	140.17
383.71 K, 10550 kPa, Liquid	136.16
383.74 K, 9490 kPa, Liquid	145.93
383.74 K, 11270 kPa, Liquid	132.02
383.78 K, 7490 kPa, Liquid	182.33
383.81 K, 9090 kPa, Liquid	151.38
383.86 K, 7980 kPa, Liquid	172.97
383.87 K, 8520 kPa, Liquid	160.93
383.88 K, 12030 kPa, Liquid	129.42
